Laboratory results from patent US20240109905A1, “4-ALKOXY-6-OXO-PYRIDAZINE DERIVATIVES MODULATING NLRP3” (JANSSEN PHARMACEUTICA NV, priority 2021, published 2024).
Like-named read-outs stand apart in the source and are kept apart here.

How the values were obtained:
[1] = tested on: IL-1β; experiment: PBMC assay: IL-1β release after LPS stimulation; type: cell-based; conditions: human PBMCs, 30 min compound, 100 ng/ml LPS for 6 hrs, MSD, read-out: IL1β AC50
Experimental: The activity of a compound according to the present invention can be assessed by in vitro methods.
(§1) Peripheral venous blood was collected from healthy individuals and human peripheral blood mononuclear cells (PBMCs) were isolated from blood by Ficoll-Histopaque (Sigma-Aldrich, A0561) density gradient centrifugation. After isolation, PBMCs were stored in liquid nitrogen for later use. Upon thawing, PBMC cell viability was determined in growth medium (RPMI media supplemented with 10% fetal bovine serum, 1% Pen-Strep and 1% L-glutamine). Compounds were spotted in a 1:3 serial dilution in DMSO and diluted to the final concentration in 30 μl medium in 96 well plates (Falcon, 353072). PBMCs were added at a density of 7.5×10^4 cells per well and incubated for 30 min in a 5% CO2 incubator at 37° C. LPS stimulation was performed by addition of 100 ng/ml LPS (final concentration, Invivogen, tlrl-smlps) for 6 hrs followed by collection of cellular supernatant and the analysis of IL-1β (μM) and TNF cytokines levels (μM) via MSD technology according to manufacturers' guidelines (MSD, K151A0H).
(§2) IC50 and AC50 values (for […]) and EC50 and AC50 values (TNF) were obtained on compounds of the invention/examples, and the AC50 values are depicted in the following table: […]

[2] = tested on: TNF; experiment: PBMC assay: TNF cytokine level after LPS stimulation; type: cell-based; conditions: human PBMCs, 30 min compound, 100 ng/ml LPS for 6 hrs, MSD
Experimental: as §1, §2

SMILES	AC50 ([1]; PBMC) [nM]	AC50 ([2]; PBMC) [nM]	AC50 [1] [nM]	AC50 [2] [nM]
CC(C)c1nn(CC(=O)Nc2ccc3nncn3c2)c(=O)cc1OC1CCN(C(=O)OC(C)(C)C)C1 (centres unmarked) [Compound 1F, tert-butyl 3-((1-(2-([1,2,4]triazolo[4,3-a]pyridin-6-ylamino)-2-oxoethyl)-3-isopropyl-6-oxo-1,6-dihydropyridazin-4-yl)oxy)pyrrolidine-1-carboxylate]	> 15000	> 10000		
CC(C)c1nn(CC(=O)Nc2ccc3nncn3c2)c(=O)cc1OCC1CN(C(=O)OC(C)(C)C)C1 [Compound 2F]	> 15000	> 10000		
CC(C)c1nn(CC(=O)Nc2ccc3nncn3c2)c(=O)cc1OC1CN(C(=O)OC(C)(C)C)C1 [Compound 3F]	> 15000	> 10000		
CC(Oc1cc(=O)n(CC(=O)Nc2ccc3nncn3c2)nc1C(C)C)C(=O)N(C)C (centres unmarked) [Compound 4F]	> 15000	> 10000		
CC(C)c1nn(CC(=O)Nc2ccc3nncn3c2)c(=O)cc1OC1CCCC1 [Compound 5F]	470	> 10000		
CC(C)c1nn(CC(=O)Nc2ccc3nncn3c2)c(=O)cc1OCC1CS(=O)(=O)C1 [Compound 6F]	> 15000	> 10000		
CC(C)c1nn(CC(=O)Nc2ccc3nncn3c2)c(=O)cc1OCC1CCC1 [Compound 7F]	210	> 10000		
CC(C)c1nn(CC(=O)Nc2ccc3nncn3c2)c(=O)cc1OCC(C)(F)F [Compound 8F]	190	> 10000		
CCC(C)Oc1cc(=O)n(CC(=O)Nc2ccc3nncn3c2)nc1C(C)C (centres unmarked) [Compound 9F]	560	> 10000		
CC(C)COc1cc(=O)n(CC(=O)Nc2ccc3nncn3c2)nc1C(C)C [Compound 10F]	60	> 10000		
CC(C)c1nn(CC(=O)Nc2ccc3nncn3c2)c(=O)cc1OCC(C)(C)F [Compound 11F]	320	> 10000		
CC(C)c1nn(CC(=O)Nc2ccc3nncn3c2)c(=O)cc1OCCN(C)C [Compound 12F]	> 15000	> 10000		
CC(C)c1nn(CC(=O)Nc2ccc3nncn3c2)c(=O)cc1OC1COC1 [Compound 13F]	> 15000	> 10000		
CC(C)c1nn(CC(=O)Nc2ccc3nncn3c2)c(=O)cc1OC1CCC1 [Compound 14F]	680	> 10000		
CC(C)c1nn(CC(=O)Nc2ccc3nncn3c2)c(=O)cc1OCC1(C)COC1 [Compound 15F]	2300	> 10000		
CC(C)c1nn(CC(=O)Nc2ccc3nncn3c2)c(=O)cc1OCC(C)(C)C(F)(F)F [Compound 16F]	1560	> 10000		
CC(C)c1nn(CC(=O)Nc2ccc3nncn3c2)c(=O)cc1OCC(F)F [Compound 17F]	690	> 10000		
CC(C)Oc1cc(=O)n(CC(=O)Nc2ccc3nncn3c2)nc1C(C)C [Compound 18F]	660	> 10000		
CC(C)c1nn(CC(=O)Nc2ccc3nncn3c2)c(=O)cc1OCC1CC(F)(F)C1 [Compound 19F]	5330	> 10000		
CC(C)c1nn(CC(=O)Nc2ccc3nncn3c2)c(=O)cc1OC(C)C(F)(F)F (centres unmarked) [Compound 20F]	1290	> 10000		
CC(C)c1nn(CC(=O)Nc2ccc3nncn3c2)c(=O)cc1OCC1CC1(F)F (centres unmarked) [Compound 21F]	650	> 10000		
CC(C)c1nn(CC(=O)Nc2ccc3nncn3c2)c(=O)cc1OCC1CC1 [Compound 22F]	110	> 10000		
CC(C)c1nn(CC(=O)Nc2ccc3nncn3c2)c(=O)cc1OCC(F)(F)F [Compound 23F]	160	> 10000		
CCCOc1cc(=O)n(CC(=O)Nc2ccc3nncn3c2)nc1C(C)C [Compound 24F]	190	> 10000		
CC(C)c1nn(CC(=O)Nc2ccc3nncn3c2)c(=O)cc1Oc1ccccc1 [Compound 25F]	> 15000	> 10000		
CC(C)c1nn(CC(=O)Nc2ccc3nncn3c2)c(=O)cc1OC1CCOCC1 [Compound 26F]	13600	> 10000		
COc1cc(=O)n(CC(=O)Nc2ccc3nncn3n2)nc1C(C)C [Compound 27C, N-([1,2,4]triazolo[4,3-b]pyridazin-6-yl)-2-(3-isopropyl-4-methoxy-6-oxopyridazin-1(6H)-yl)acetamide]	13300	> 10000		
COc1c(C(C)C)nn(CC(=O)Nc2ccc3nncn3c2)c(=O)c1C1CC1 [Compound 28E]	> 15000	> 10000		

SMILES	AC50 ([1]; PBMC) [nM]	AC50 ([2]; PBMC) [nM]	AC50 [1] [nM]	AC50 [2] [nM]
COc1c(C(C)C)nn(CC(=O)Nc2ccc3nncn3c2)c(=O)c1Br [Compound 29E]	> 15000	> 10000		
O=C(Cn1nc(C2CC2)c(OC2CCOCC2)cc1=O)Nc1ccc2nncn2c1 [Compound 30G]	14600	> 10000		
CCOc1cc(=O)n(CC(=O)Nc2ccc3nncn3n2)nc1C1CC1 [Compound 31C]	920	> 10000		
O=C(Cn1nc(C2CC2)c(OCC23CC(CO2)C3)cc1=O)Nc1ccc2nncn2n1 [Compound 32E]	14600	> 10000		
CCOc1cc(=O)n(CC(=O)Nc2ccc3nncn3c2)nc1C1CC1 [Compound 33D]	1250	> 10000		
COC(=O)C12CC(NC(=O)Cn3nc(C(C)C)c(OCC(C)C)cc3=O)(C1)C2 [Compound 36, methyl 3-(2-(4-isobutoxy-3-isopropyl-6-oxopyridazin-1(6H)-yl)acetamido)bicyclo[1.1.1]pentane-1-carboxylate]	10	3810		
COC(=O)C12CCC(NC(=O)Cn3nc(C(C)C)c(OCC(C)C)cc3=O)(CC1)C2 [Compound 38]	20	12200		
CC(C)COc1c(C(C)C)nn(CC(=O)Nc2ccc3nncn3n2)c(=O)c1Cl [Compound 39]	20	600		
CC(C)COc1cc(=O)n(CC(=O)Nc2ccc3nncn3n2)nc1C(C)C [Compound 41]	40	> 20000		
Cc1c(OCC(C)C)c(C(C)C)nn(CC(=O)Nc2ccc3nncn3n2)c1=O [Compound 42]	50	9410		
CC(C)COc1cc(=O)n(CC(=O)Nc2nc3cnccn3n2)nc1C(C)C [Compound 43]	70	> 20000		
CC(C)c1nn(CC(=O)Nc2ccc3nncn3n2)c(=O)c(Cl)c1OCC1CC1 [Compound 44, N-([1,2,4]triazolo[4,3-b]pyridazin-6-yl)-2-(5-chloro-4-(cyclopropylmethoxy)-3-isopropyl-6-oxopyridazin-1(6H)-yl)acetamide]	70	3530		
COC(=O)C12CCC(NC(=O)Cn3nc(C(C)C)c(OCC(C)C)cc3=O)(CC1)CC2 [Compound 45]	70	> 20000		
CC(C)c1nn(CC(=O)Nc2ccc3nncn3n2)c(=O)c(Cl)c1OCC(C)(F)F [Compound 46]	80	8170		
CC(C)COc1cc(=O)n(CC(=O)Nc2ccncc2)nc1C(C)C [Compound 47]	80	> 20000		
CCCOc1c(C(C)C)nn(CC(=O)Nc2ccc3nncn3n2)c(=O)c1Cl [Compound 48]	90	4980		
CC(C)COc1cc(=O)n(CC(=O)Nc2ccc3nccn3n2)nc1C(C)C [Compound 49]	90	> 20000		
CC(C)c1nn(CC(=O)Nc2ccc3nncn3n2)c(=O)c(Cl)c1OCCC(F)(F)F [Compound 50]	90	1620		
CC(C)c1nn(CC(=O)Nc2ccc3nncn3n2)c(=O)cc1OCC1CC1 [Compound 51]	90	> 20000		
CC(C)COc1cc(=O)n(CC(=O)Nc2ccncc2F)nc1C(C)C [Compound 52]	90	> 20000		
CC(C)COc1cc(=O)n(CC(=O)Nc2nc3ccccn3n2)nc1C(C)C [Compound 53]	100	> 20000		
Cc1c(OCC(C)C)c(C(C)C)nn(CC(=O)Nc2ccc3nncn3c2)c1=O [Compound 54, N-([1,2,4]triazolo[4,3-a]pyridin-6-yl)-2-(4-isobutoxy-3-isopropyl-5-methyl-6-oxopyridazin-1(6H)-yl)acetamide]	100	15600		
CC(C)c1nn(CC(=O)Nc2ccc3nncn3n2)c(=O)cc1OCC(C)(F)F [Compound 56]	130	> 20000		
CC(C)c1nn(CC(=O)Nc2ccc3nncn3n2)c(=O)cc1OCC1(F)CC1 [Compound 57]	140	> 20000		
CC(C)COc1cc(=O)n(CC(=O)Nc2ccc3nncn3n2)nc1N(C)C [Compound 58]	150	> 10000		
CC(C)COc1cc(=O)n(NC23CCC(O)(CC2)C3)nc1C(C)C [Compound 59]			160	> 20000
CC(C)COc1c(C(C)C)nn(CC(=O)Nc2ccc3nncn3c2)c(=O)c1Cl [Compound 60, N-([1,2,4]triazolo[4,3-a]pyridin-6-yl)-2-(5-chloro-4-isobutoxy-3-isopropyl-6-oxopyridazin-1(6H)-yl)acetamide]	160	> 20000		
